Experimental data taken from patent US10689331B2, “IDO inhibitors” (Bristol-Myers Squibb Company, priority 2015, dated 2020).

Target: T1, human IDO1 (Homo sapiens, UniProt P14902)
T1 construct: expressed in transfected cells
Assay: HEK Human IDO-1 inhibition assay (kynurenine readout, Ehrlich reagent, absorbance 490 nm)
Format: cell-based
Conditions: human IDO1/HEK293 cells, incubated 20 hours with compound; 500 nM reference standard = 100% inhibition
Method: HEK293 cells were transfected with a pCDNA-based mammalian expression vector harboring human IDO1 cDNA (NM 002164.2) by electroporation. They were cultured in medium (DMEM with 10% FBS) containing 1 mg/ml G418 for two weeks. Clones of HEK293 cells that stably expressed human IDO1 protein were selected and expanded for IDO inhibition assay.
The human IDO1/HEK293 cells were seeded at 10,000 cells per 50 uL per well with RPMI/phenol red free media contains 10% FBS in a 384-well black wall clear bottom tissue culture plate (Matrix Technologies LLC) 100 nL of certain concentration of compound was then added to each well using ECHO liquid handling systems. The cells were incubated for 20 hours in 37° C. incubator with 5% CO2.
The compound treatments were stopped by adding Trichloroacetic Acid (Sigma-Aldrich) to a final concentration at 0.2%. The cell plate was further incubated at 50° C. for 30 minute. The equal volume supernatant (20 uL) and 0.2% (w/v) Ehrlich reagent (4-dimethylaminobenzaldehyde, Sigma-Aldrich) in glacial acetic acid were mixed in a new clear bottom 384-well plate. This plate was then incubated at room temperature for 30 minute. The absorbance at 490 nm was measured on Envision plate reader. Compound IC50 values were calculated using the counts of 500 nM of a reference standard treatment as one hundred percent inhibition, and counts of no compound but DMSO treatment as zero percent inhibition.

T1 sequence (P14902 whole entry): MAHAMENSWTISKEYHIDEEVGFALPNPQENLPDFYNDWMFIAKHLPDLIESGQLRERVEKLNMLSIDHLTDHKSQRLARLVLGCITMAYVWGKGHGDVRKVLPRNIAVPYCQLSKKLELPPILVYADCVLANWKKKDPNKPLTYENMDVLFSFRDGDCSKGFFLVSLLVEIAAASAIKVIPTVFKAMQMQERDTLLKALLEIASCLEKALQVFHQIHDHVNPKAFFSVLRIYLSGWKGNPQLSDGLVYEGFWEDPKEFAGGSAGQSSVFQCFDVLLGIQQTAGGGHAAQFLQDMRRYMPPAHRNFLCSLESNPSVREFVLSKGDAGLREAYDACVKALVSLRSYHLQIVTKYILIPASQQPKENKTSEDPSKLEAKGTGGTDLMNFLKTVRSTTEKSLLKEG

SMILES | IC50
CC(C)CN(c1ccc(OC(C)C(=O)O)cc1Nc1nc2ccccc2o1)C1CCCCC1 (racemic) [Example 62, (±)-2-(3-(benzo[d]oxazol-2-ylamino)-4-(cyclohexyl (isobutyl)amino)phenoxy)propanoic acid] | ≥ 100 nM
CC(C)CN(c1ccc(OC(C)C(=O)NS(=O)(=O)C2CC2)cc1NC(=O)Cc1ccc(Cl)cc1F)C1CCCCC1 (racemic) [Example 77, (±)-2-(3-(2-(4-chloro-2-fluorophenyl)acetamido)-4-(cyclohexyl(isobutyl)amino)phenoxy)-N-(cyclopropylsulfonyl) propanamide] | < 100 nM
Cc1ccc(NC(=O)Nc2cc(OCC(=O)O)ccc2N(CC(C)C)C2CCCCC2)cc1F [Example 33, 2-(4-(cyclohexyl(isobutyl)amino)-3-(3-(3-fluoro-4-methylphenyl)ureido)phenoxy)acetic acid] | < 100 nM
CC(C)CN(c1ccc(OCC(=O)O)cc1NC(=O)Nc1cc(Cl)ccc1F)C1CCCCC1 [Example 22, 2-(3-(3-(5-chloro-2-fluorophenyl)ureido)-4-(cyclohexyl(isobutyl)amino)phenoxy)acetic acid] | < 100 nM
CC(C)CN(c1ccc(OCC(=O)NS(=O)(=O)C2CC2)cc1NC(=O)Nc1ccc(Cl)cc1F)C1CCCCC1 [Example 47, 2-(3-(3-(4-chloro-2-fluorophenyl)ureido)-4-(cyclohexyl (isobutyl)amino)phenoxy)-N-(cyclopropyl-sulfonyl)acetamide] | < 5 nM
CCCN(Cc1ccccc1)c1ccc(OCC(=O)O)cc1NC(=O)Nc1ccc(OCC)cc1 [Example 161, 2-(4-(benzyl(propyl)amino)-3-(3-(4-ethoxyphenyl)ureido)phenoxy)acetic acid] | ≥ 100 nM
Cc1cc(NC(=O)Nc2cc(OCC(=O)O)ccc2N(CC(C)C)C2CCCCC2)no1 [Example 7, 2-(4-(cyclohexyl(isobutyl)amino)-3-(3-(5-methylisoxazol-3-yl)ureido)phenoxy)acetic acid] | ≥ 100 nM
CCCC(Oc1ccc(N(CC(C)C)C2CCCCC2)c(NC(=O)Nc2ccccc2F)c1)C(=O)O (single isomer, unassigned) [Example 87-2, 2-(4-(cyclohexyl(isobutyl)amino)-3-(3-(2-fluorophenyl)ureido)phenoxy)pentanoic acid] | < 5 nM
C=C(C)CN(c1ccc(OC(C)C(=O)O)cc1NC(=O)Nc1ccc(Cl)cc1F)C1CCOCC1 (stereo not shown) [Example 138, 2-(3-(3-(4-chloro-2-fluorophenyl)ureido)-4-((2-methylallyl)(tetrahydro-2H-pyran-4-yl)amino)phenoxy)propanoic acid] | < 100 nM
CC(C)CN(c1ccc(OC(C)C(=O)O)cc1NC(=O)Nc1ccc(Cl)cc1F)C1CCOC1 (single isomer, unassigned) [Example 146-2, 2-(3-(3-(4-chloro-2-fluorophenyl)ureido)-4-(isobutyl(tetrahydrofuran-3-yl)amino)phenoxy)propanoic acid] | < 100 nM
CC(C)CN(c1ccc(OCC(=O)O)cc1NC(=O)Nc1cc(F)ccc1F)C1CCCCC1 [Example 20, 2-(4-(cyclohexyl(isobutyl)amino)-3-(3-(2,5-difluorophenyl)ureido)phenoxy)acetic acid] | < 5 nM
CC(C)CN(c1ccc(OCC(=O)O)cc1NC(=O)Nc1cc(F)cc(F)c1)C1CCCCC1 [Example 32, 2-(4-(cyclohexyl(isobutyl)amino)-3-(3-(3,5-difluorophenyl)ureido)phenoxy)acetic acid] | ≥ 100 nM
CC(C)CN(c1ccc(OCc2nnn[nH]2)cc1NC(=O)Nc1ccccc1F)C1CCCCC1 [Example 97, 1-(5-((1H-tetrazol-5-yl)methoxy)-2-(cyclohexyl(isobutyl)amino)phenyl)-3-(2-fluorophenyl)urea] | < 5 nM
CC(C)CN(c1ccc(OC(C)c2ncco2)cc1NC(=O)Nc1ccc(Cl)cc1F)C1CCCCC1 (stereo not shown) [Example 157, 1-(4-chloro-2-fluorophenyl)-3-(2-(cyclohexyl(isobutyl)amino)-5-(1-(oxazol-2-yl)ethoxy)phenyl)urea] | < 100 nM
O=C(O)COc1ccc(N(CC2CC2)C2CCCCC2)c(NC(=O)Nc2ccc(Cl)cc2F)c1 [Example 118, 2-(3-(3-(4-chloro-2-fluorophenyl)ureido)-4-(cyclohexyl(cyclopropylmethyl)amino)phenoxy)acetic acid] | < 100 nM
CC(C)CN(c1ccc(OC(C)C(=O)O)cc1NC(=O)Nc1ccc(C#N)cc1)C1CCCCC1 (single isomer, unassigned) [Example 66-2, 2-(3-(3-(4-cyanophenyl)ureido)-4-(cyclohexyl(isobutyl)amino)phenoxy)propanoic acid] | < 5 nM
CCC(Oc1ccc(N(CC(C)C)C2CCOCC2)c(NC(=O)Nc2ccc(Cl)cc2F)c1)C(=O)O (single isomer, unassigned) [Example 143-2, 2-(3-(3-(4-chloro-2-fluorophenyl)ureido)-4-(isobutyl(tetrahydro-2H-pyran-4-yl)amino)phenoxy)butanoic acid] | < 5 nM
Cc1ccc(NC(=O)Nc2cc(OCC(=O)NS(=O)(=O)C3CC3)ccc2N(CC(C)C)C2CCCCC2)cc1 [Example 53, 2-(4-(cyclohexyl(isobutyl)amino)-3-(3-(p-tolyl)ureido)phenoxy)-N-(cyclopropylsulfonyl)acetamide] | < 100 nM
CC(C)CN(c1ccc(OCC(=O)O)cc1NC(=O)Nc1cccc(C(F)(F)F)c1F)C1CCCCC1 [Example 27, 2-(4-(cylclohexyl(isobutyl)amino)-3-(3-(2-fluoro-3-(trifluoromethyl)phenyl)ureido)phenoxy)acetic acid] | ≥ 100 nM
CCCC(Oc1ccc(N(CC(C)C)C2CCCCC2)c(NC(=O)Nc2ccc(Cl)cc2F)c1)C(=O)O (single isomer, unassigned) [Example 85-1, 2-(3-(3-(4-chloro-2-fluorophenyl)ureido)-4-(cyclohexyl(isobutyl)amino)phenoxy)pentanoic acid] | < 5 nM
CC(C)CN(Cc1ccc(Cl)cc1)c1ccc(OCC(=O)O)cc1NC(=O)Nc1ccc(Cl)cc1F [Example 163, 2-(3-(3-(4-chloro-2-fluorophenyl)ureido)-4-((4-chlorobenzyl)(isobutyl)amino)phenoxy)acetic acid] | < 100 nM
CC(C)CN(c1ccc(OCC(=O)O)cc1NC(=O)N1CCc2ccccc21)C1CCCCC1 [Example 16, 2-(4-(cyclohexyl(isobutyl)amino)-3-(indoline-1-carboxamido)phenoxy)acetic acid] | ≥ 100 nM
CCC(Oc1ccc(N(CC(C)C)C2CCCCC2)c(NC(=O)Nc2ccc(C)cc2)c1)C(=O)O (single isomer, unassigned) [Example 82-2, 2-(4-(cyclohexyl(isobutyl)amino)-3-(3-(p-tolyl)ureido)phenoxy)butanoic acid] | < 100 nM
CC(C)CN(c1ccc(OCC(=O)O)cc1NC(=O)Nc1ccc(Cl)c(F)c1)C1CCCCC1 [Example 36, 2-(3-(3-(4-chloro-3-fluorophenyl)ureido)-4-(cyclohexyl(isobutyl)amino)phenoxy)acetic acid] | < 100 nM
CC(C)CN(c1ccc(OCC(=O)NS(=O)(=O)C(C)(C)C)cc1NC(=O)Nc1ccc(Cl)cc1F)C1CCCCC1 [Example 48, N-(tert-butylsulfonyl)-2-(3-(3-(4-chloro-2-fluorophenyl)ureido)-4-(cyclohexyl(isobutyl)amino)phenoxy) acetamide] | < 5 nM
